Test results: ChEMBL document CHEMBL1133817, “Discovery of novel, orally active dual NK1/NK2 antagonists” (Bioorg Med Chem Lett, 2001)

Experiments:
[1] = target: T1, Neuromedin-K receptor (Homo sapiens, UniProt P29371); assay: Binding affinity against human cloned Tachykinin receptor 3 expressed in MEL cells; type: cell-based
T1 sequence (P29371 whole entry): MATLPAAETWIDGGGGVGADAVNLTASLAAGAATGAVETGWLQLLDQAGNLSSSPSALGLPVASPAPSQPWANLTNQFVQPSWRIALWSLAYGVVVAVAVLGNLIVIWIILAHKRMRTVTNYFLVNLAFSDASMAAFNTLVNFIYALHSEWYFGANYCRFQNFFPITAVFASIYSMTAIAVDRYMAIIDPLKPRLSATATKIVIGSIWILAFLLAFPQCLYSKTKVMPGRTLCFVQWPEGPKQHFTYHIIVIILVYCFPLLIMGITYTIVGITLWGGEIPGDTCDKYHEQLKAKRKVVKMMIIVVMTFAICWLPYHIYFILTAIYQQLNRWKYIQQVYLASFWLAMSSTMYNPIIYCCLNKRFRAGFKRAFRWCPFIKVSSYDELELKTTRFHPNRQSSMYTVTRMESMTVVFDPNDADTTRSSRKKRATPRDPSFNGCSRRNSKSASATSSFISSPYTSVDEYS

[2] = Maximum concentration by oral administration at a dose of 100 umol/kg in rat was determined; type: ADME, organism-based; set-up: dose 100 umol/kg, route oral; conditions: in vivo
[3] = Half life period at a dose of 1 uM/kg in dog was determined; type: ADME, organism-based, Canis lupus familiaris; conditions: in vivo
[4] = Tmax by oral administration at a dose of 10 uM/kg in dog was determined; type: ADME, organism-based, Canis lupus familiaris; conditions: in vivo
[5] = test system: Canis familiaris; assay: Area under curve by intravenous administration at a dose of 1 uM/kg in dog was determined; type: ADME, organism-based, Canis lupus familiaris; conditions: in vivo
[6] = test system: Rattus norvegicus; assay: Area under curve by oral administration at a dose of 100 uM/kg in rat was determined; type: ADME, organism-based; conditions: in vivo
[7] = Volume distribution at a dose of 10 uM/kg in rat was determined; type: ADME, organism-based; conditions: in vivo, read-out: Vdss
[8] = Half life period at a dose of 10 uM/kg in rat was determined; type: ADME, organism-based; conditions: in vivo
[9] = Tmax by oral administration at a dose of 100 uM/kg in rat was determined; type: ADME, organism-based; conditions: in vivo
[10] = Bioavailability by oral administration at a dose of 100 uM/kg in rat was determined; type: ADME, organism-based; conditions: in vivo, read-out: Bioavailabiility
[11] = Half-life period by oral administration at a dose of 10 uM/kg in dog was determined; type: ADME, organism-based, Canis lupus familiaris; conditions: in vivo
[12] = Plasma clearance in rat at a dose of 10 uM/kg in rat was determined; type: ADME, organism-based; conditions: read-out: Clp
[13] = test system: Canis familiaris; assay: Area under curve by oral administration at a dose of 10 uM/kg in dog was determined; type: ADME, organism-based, Canis lupus familiaris; conditions: in vivo
[14] = Bioavailability by oral administration at a dose of 10 uM/kg in dog was determined; type: ADME, organism-based, Canis lupus familiaris; conditions: in vivo, read-out: Bioavailabiility
[15] = Maximum concentration by oral administration at a dose of 10 umol/kg in dog was determined; type: ADME, organism-based, Canis lupus familiaris; set-up: dose 10 umol/kg, route oral; conditions: in vivo
[16] = target: T2, Substance-K receptor (Homo sapiens, UniProt P21452); assay: Binding affinity against human cloned Tachykinin receptor 2 expressed in MEL cells; type: cell-based
T2 sequence (P21452 whole entry): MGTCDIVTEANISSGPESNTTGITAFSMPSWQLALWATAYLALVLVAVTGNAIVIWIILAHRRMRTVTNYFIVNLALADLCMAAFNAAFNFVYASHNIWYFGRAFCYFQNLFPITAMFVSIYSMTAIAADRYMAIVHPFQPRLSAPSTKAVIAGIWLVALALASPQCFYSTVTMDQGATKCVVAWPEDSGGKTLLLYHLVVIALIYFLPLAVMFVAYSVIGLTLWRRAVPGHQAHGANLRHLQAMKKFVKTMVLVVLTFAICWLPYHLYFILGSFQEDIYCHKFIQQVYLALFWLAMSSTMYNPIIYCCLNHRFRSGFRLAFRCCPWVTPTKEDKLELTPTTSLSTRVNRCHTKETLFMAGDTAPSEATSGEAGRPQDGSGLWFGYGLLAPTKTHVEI

[17] = test system: Rattus norvegicus; assay: Area under curve by intravenous administration at a dose of 10 uM/kg in rat was determined; type: ADME, organism-based; conditions: in vivo
[18] = target: Substance-P receptor (Homo sapiens, UniProt P25103); assay: Binding affinity against human cloned Tachykinin receptor 1 expressed in MEL cells; type: cell-based
[19] = Volume distribution at a dose of 1 uM/kg in dog was determined; type: ADME, organism-based, Canis lupus familiaris; conditions: in vivo, read-out: Vdss

Sequence of Substance-P receptor (P25103 whole entry): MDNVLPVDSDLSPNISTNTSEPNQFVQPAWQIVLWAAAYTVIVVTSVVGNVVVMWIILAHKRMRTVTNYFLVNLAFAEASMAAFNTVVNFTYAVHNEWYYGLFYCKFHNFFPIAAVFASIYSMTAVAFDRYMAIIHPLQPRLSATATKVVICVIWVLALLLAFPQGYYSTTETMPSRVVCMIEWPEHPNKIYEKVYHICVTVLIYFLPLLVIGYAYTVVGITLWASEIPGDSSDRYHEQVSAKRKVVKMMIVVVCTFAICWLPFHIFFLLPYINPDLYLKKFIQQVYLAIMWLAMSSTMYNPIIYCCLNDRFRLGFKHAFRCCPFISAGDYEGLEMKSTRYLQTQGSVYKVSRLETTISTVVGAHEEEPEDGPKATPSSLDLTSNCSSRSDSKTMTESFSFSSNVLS

In the case of `CN(C[C@@H](CCN1CCC(c2ccccc2[S@+](C)[O-])CC1)c1ccc(Cl)c(Cl)c1)C(=O)c1cc(C#N)cc2ccccc12` (stereo in doubt), the Ki [1] is reported as 74000 pM, the Cmax [2] is reported as 421 ng/mL and the half-life [3] is reported as 3.8 h. It also gave a Tmax [4] of 2 h, an AUC [5] of 1100 ng·h/mL and an AUC [6] of 3010 ng·h/mL. The Vd [7] was 3.7 L/kg, the half-life [8] was 1.8 h and the Tmax [9] was 2 h. It also gave a bioavailability [10] of 9%, a half-life [11] of 2.3 h and a clearance [12] of 32.6 mL/min/kg. For the same molecule, the AUC [13] was 2000 ng·h/mL, the bioavailability [14] was 18% and the Cmax [15] was 364 ng/mL. For the same molecule, the Ki [16] was 600 pM, the AUC [17] was 3200 ng·h/mL and the Ki [18] was 100 pM. The Vd [19] was 2 L/kg.
